Assays:
MatB [1] = target: T1, MatB (Arabidopsis thaliana, UniProt Q8H151); assay: HPLC detection of malonyl-CoA formed; assay type: biochemical; settings: 1.5 mmol/L CoA, 3 mmol/L ATP, 5 mmol/L MgCl2, 1 mmol/L DTT, potassium phosphate pH 6.0, 30 °C, 12 h
T1 sequence (Q8H151 1-608): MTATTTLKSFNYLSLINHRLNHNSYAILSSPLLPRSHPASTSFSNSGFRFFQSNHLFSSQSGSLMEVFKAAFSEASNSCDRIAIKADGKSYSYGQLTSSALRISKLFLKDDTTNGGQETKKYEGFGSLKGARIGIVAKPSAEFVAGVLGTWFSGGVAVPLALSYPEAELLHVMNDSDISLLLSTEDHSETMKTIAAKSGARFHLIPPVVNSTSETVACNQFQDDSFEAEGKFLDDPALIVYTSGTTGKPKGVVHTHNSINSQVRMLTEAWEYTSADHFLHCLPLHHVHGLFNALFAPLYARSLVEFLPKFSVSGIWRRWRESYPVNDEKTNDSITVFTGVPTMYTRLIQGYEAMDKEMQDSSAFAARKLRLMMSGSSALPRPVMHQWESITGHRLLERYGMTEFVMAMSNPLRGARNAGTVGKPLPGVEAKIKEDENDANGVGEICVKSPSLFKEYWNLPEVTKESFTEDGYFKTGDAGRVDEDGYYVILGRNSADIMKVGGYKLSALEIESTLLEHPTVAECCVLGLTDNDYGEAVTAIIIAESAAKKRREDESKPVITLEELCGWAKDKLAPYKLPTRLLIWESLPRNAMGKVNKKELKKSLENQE

MatB [2] = target: T1, MatB; settings: 1.5 mmol/L CoA, 3 mmol/L ATP, 5 mmol/L MgCl2, 1 mmol/L DTT, potassium phosphate pH 6.0, 30 °C, 12 h
CtMaT1 = assay: HPLC initial-rate kinetics, nonlinear regression; assay type: biochemical, Cistanche tubulosa; settings: 2 mmol/L malonyl-CoA as co-substrate, 1 mmol/L DTT, 100 mmol/L potassium phosphate pH 6.0, 30 °C

Row | SMILES | Km (CtMaT1) [µM] | further results
1 | O=C(O)CC(=O)O [malonic acid] | – | HPLC detection of malonyl-CoA formed (MatB [1]): made directly from malonic acid in the presence of CoA, ATP, and MatB proteins
2 | CC(C(=O)O)C(=O)O [methylmalonic acid] | – | HPLC detection of methylmalonyl-CoA formed (MatB [2]): MatB could also conduct the synthesis of methyl-MLC
3 | OC[C@H]1O[C@@H](OCCc2ccc(O)cc2)[C@H](O)[C@@H](O)[C@@H]1O [compound 2, salidroside] | 757 ± 58.2 | –
4 | OC[C@H]1O[C@@H](Oc2cc3c(O)cc(O)cc3[o+]c2-c2ccc(O)c(O)c2)[C@H](O)[C@@H](O)[C@@H]1O [compound 1, cyanidin 3-glucoside] | 685 ± 25.3 | –
